From patent US10040781B2, “Tank-binding kinase inhibitor compounds” (Gilead Sciences, Inc., priority 2014, dated 2018)

Columns and labels:
[1] = target: hJAK2 (Homo sapiens (Human), UniProt O60674); test: hJAK2 LANCE TR-FRET enzymatic assay; assay type: biochemical; settings: read-out: JAK2 IC50
[2] = target: IKKε (Homo sapiens (Human), UniProt Q14164); test: IKKε TR-FRET enzymatic assay; assay type: biochemical; settings: TR-FRET, 2×Km ATP; geometric mean of minimum four determinations; read-out: IKKe IC50
[3] = target: TBK1 (Homo sapiens (Human), UniProt Q9UHD2); test: TBK1 TR-FRET enzymatic assay;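 further: phosphorylation of a biotinylated Ser/Thr peptide by purified full-length recombinant TBK1, read by TR-FRET after 240 min at 25 °C, IC50 is the geometric mean of at least four runs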
Chain of TBK1 (Q9UHD2 whole entry): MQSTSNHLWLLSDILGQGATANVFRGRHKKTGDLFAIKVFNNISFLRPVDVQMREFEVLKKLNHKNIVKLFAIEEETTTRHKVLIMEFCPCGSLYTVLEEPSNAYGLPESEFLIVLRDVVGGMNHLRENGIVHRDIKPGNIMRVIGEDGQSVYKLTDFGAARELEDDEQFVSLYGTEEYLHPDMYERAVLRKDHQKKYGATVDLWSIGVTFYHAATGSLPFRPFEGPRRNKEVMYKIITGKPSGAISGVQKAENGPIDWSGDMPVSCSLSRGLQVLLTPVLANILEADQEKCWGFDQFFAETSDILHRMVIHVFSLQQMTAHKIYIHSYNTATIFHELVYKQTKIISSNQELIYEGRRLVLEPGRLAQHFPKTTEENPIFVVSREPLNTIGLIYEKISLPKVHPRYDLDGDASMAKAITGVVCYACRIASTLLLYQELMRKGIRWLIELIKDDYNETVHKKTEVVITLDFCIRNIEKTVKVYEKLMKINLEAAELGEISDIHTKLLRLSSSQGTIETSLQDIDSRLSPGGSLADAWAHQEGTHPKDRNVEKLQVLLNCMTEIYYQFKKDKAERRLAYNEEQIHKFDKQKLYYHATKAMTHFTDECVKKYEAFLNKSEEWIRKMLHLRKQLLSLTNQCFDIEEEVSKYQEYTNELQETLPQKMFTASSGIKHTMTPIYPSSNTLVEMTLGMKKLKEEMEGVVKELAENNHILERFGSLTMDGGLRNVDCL
Description: Enzymatic activity of IKKε and TBK1 was measured using a homogeneous time resolved fluorescence resonance energy transfer (TR-FRET) assay that monitors enzyme dependent phosphorylation of a biotinylated serine/threonine peptide substrate. […] TBK1 and IKKε were expressed and purified as full length recombinant proteins. Detection reagents for the assay were purchased from Cisbio. […] After an assay reaction time of 240 minutes at 25° C., reactions were terminated with EDTA.
All IC50 values represent geometric mean values of a minimum of four determinations.

Chain of IKKε (Q14164 whole entry): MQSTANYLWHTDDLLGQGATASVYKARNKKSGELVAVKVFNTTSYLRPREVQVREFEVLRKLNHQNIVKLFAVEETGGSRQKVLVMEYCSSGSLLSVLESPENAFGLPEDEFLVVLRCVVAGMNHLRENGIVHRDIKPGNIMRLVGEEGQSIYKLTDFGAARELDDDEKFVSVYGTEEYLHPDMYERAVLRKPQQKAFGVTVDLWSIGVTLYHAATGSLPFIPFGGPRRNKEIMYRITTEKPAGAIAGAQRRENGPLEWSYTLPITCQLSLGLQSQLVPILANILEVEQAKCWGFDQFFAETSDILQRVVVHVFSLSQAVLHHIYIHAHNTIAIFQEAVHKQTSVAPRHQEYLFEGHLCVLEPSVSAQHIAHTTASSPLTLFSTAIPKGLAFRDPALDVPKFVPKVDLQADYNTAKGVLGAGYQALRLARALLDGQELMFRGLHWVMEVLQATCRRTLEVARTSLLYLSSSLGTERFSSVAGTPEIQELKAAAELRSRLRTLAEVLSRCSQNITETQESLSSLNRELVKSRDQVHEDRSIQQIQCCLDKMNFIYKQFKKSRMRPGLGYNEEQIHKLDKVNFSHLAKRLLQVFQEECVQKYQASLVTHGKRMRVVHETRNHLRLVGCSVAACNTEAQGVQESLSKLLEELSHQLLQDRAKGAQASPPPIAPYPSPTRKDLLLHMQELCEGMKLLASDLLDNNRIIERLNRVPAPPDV
Chain of hJAK2 (O60674 whole entry): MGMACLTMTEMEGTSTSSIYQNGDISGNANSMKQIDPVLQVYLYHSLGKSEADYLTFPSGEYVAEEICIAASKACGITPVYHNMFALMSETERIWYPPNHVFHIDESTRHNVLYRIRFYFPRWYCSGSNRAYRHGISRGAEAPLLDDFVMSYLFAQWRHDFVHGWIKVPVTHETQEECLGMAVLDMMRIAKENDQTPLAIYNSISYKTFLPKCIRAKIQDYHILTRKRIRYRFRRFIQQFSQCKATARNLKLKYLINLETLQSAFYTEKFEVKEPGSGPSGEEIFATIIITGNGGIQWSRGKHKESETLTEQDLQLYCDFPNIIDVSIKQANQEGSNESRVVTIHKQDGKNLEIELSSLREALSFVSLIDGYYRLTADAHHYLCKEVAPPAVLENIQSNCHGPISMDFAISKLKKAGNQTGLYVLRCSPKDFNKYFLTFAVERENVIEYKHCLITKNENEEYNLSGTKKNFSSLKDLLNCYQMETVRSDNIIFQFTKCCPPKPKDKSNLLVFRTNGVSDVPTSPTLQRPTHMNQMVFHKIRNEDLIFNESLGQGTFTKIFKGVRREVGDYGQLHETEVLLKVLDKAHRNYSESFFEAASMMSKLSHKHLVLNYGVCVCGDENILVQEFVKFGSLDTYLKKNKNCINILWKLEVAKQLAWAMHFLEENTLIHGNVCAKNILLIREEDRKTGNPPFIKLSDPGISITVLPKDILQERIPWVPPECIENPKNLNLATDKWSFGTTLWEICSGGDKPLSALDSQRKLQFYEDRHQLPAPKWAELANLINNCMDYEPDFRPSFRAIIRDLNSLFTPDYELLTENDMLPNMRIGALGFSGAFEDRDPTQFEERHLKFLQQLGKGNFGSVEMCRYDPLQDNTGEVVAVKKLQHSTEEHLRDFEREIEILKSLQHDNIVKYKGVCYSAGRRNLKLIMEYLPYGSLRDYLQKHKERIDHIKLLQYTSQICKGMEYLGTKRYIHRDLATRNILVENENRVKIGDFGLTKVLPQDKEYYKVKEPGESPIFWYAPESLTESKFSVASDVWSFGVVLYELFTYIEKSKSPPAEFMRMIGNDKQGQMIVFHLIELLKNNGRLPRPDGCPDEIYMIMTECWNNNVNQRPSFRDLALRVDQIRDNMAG

IC50 [1]	IC50 [2]	IC50 [3]	SMILES
0.012 µM	0.029 µM	0.019 µM	N#CCC(=O)Nc1ccc(-c2ncnc(Nc3ccc(N4CCN(C5COC5)CC4)cc3)n2)cc1C#N [Example 494, 2-cyano-N-(2-cyano-4-(4-((4-(4-(oxetan-3-yl)piperazin-1-yl)phenyl)amino)-1,3,5-triazin-2-yl)phenyl)acetamide]
0.109 µM	0.119 µM	0.04 µM	CCC(=O)Nc1ccc(-c2ncnc(Nc3ccc(N4CCN(C5COC5)CC4)cc3)n2)cc1C#N [Example 495, N-(2-cyano-4-(4-((4-(4-(oxetan-3-yl)piperazin-1-yl)phenyl)amino)-1,3,5-triazin-2-yl)phenyl)propionamide]
0.008 µM	0.008 µM	0.006 µM	N#Cc1cc(-c2ncnc(Nc3ccc(N4CCN(C5COC5)CC4)cc3)n2)ccc1NC(=O)CC(F)(F)F [Example 496, N-(2-cyano-4-(4-((4-(4-(oxetan-3-yl)piperazin-1-yl)phenyl)amino)-1,3,5-triazin-2-yl)phenyl)-3,3,3-trifluoropropanamide]
0.079 µM	0.001 µM	0.002 µM	COc1cc(Nc2ncnc(-c3ccc(O[C@H]4CCN(C(=O)[C@H](C)O)C[C@H]4F)c(C#N)c3)n2)ccc1N1CCN(C)C[C@@H]1C [Example 499, 5-(4-((4-((S)-2,4-dimethylpiperazin-1-yl)-3-methoxyphenyl)amino)-1,3,5-triazin-2-yl)-2-(((3R,4S)-3-fluoro-1-((S)-2-hydroxypropanoyl)piperidin-4-yl)oxy)benzonitrile]
≥ 1 µM	0.029 µM	0.028 µM	CCn1cc(Nc2ncnc(-c3ccc(O[C@H]4CCN(C(=O)CO)C[C@H]4F)c(C#N)c3)n2)nn1 [Example 502, 5-(4-((1-ethyl-1H-1,2,3-triazol-4-yl)amino)-1,3,5-triazin-2-yl)-2-(((3R,4S)-3-fluoro-1-(2-hydroxyacetyl)piperidin-4-yl)oxy)benzonitrile]
≥ 1 µM	0.02 µM	0.007 µM	CCn1ncc(Nc2ncnc(-c3ccc(O[C@H]4CCN(C(=O)CO)C[C@H]4F)c(C#N)c3)n2)n1 [Example 503, 5-(4-((2-ethyl-2H-1,2,3-triazol-4-yl)amino)-1,3,5-triazin-2-yl)-2-(((3R,4S)-3-fluoro-1-(2-hydroxyacetyl)piperidin-4-yl)oxy)benzonitrile]
≥ 1 µM	0.005 µM	0.004 µM	N#Cc1cc(-c2ncnc(Nc3ccc(N4CCN(C5COC5)CC4)cc3)n2)ccc1O[C@H]1CCN(C(=O)[C@@H]2CCCO2)C[C@H]1F [Example 504, 2-(((3R,4S)-3-fluoro-1-((S)-tetrahydrofuran-2-carbonyl)piperidin-4-yl)oxy)-5-(4-((4-(4-(oxetan-3-yl)piperazin-1-yl)phenyl)amino)-1,3,5-triazin-2-yl)benzonitrile]
0.532 µM	0.041 µM	0.012 µM	N#Cc1cc(-c2ncnc(Nc3ccc(N4CCN(C5COC5)CC4)cc3)n2)ccc1O[C@H]1CCN(C(=O)[C@H]2CCCO2)C[C@H]1F [Example 505, 2-(((3R,4S)-3-fluoro-1-((R)-tetrahydrofuran-2-carbonyl)piperidin-4-yl)oxy)-5-(4-((4-(4-(oxetan-3-yl)piperazin-1-yl)phenyl)amino)-1,3,5-triazin-2-yl)benzonitrile]
0.601 µM	0.003 µM	0.003 µM	N#Cc1cc(-c2ncnc(Nc3cnn(CCO)c3)n2)ccc1O[C@H]1CCN(C(=O)CO)C[C@H]1F [Example 506, 2-(((3R,4S)-3-fluoro-1-(2-hydroxyacetyl)piperidin-4-yl)oxy)-5-(4-((1-(2-hydroxyethyl)-1H-pyrazol-4-yl)amino)-1,3,5-triazin-2-yl)benzonitrile]
0.432 µM	0.002 µM	0.003 µM	N#Cc1cc(-c2ncnc(Nc3cn[nH]c3)n2)ccc1O[C@H]1CCN(C(=O)CO)C[C@H]1F [Example 507, 5-(4-((1H-pyrazol-4-yl)amino)-1,3,5-triazin-2-yl)-2-(((3R,4S)-3-fluoro-1-(2-hydroxyacetyl)piperidin-4-yl)oxy)benzonitrile]
